Measured values published in patent US9023797B2 (priority 2012, dated 2015).

System: Virus
Experiment: Design of Experiment study of viral inactivation process variables
Assay type: cell-based
Conditions: 30 mM caprylate, albumin 5%, pH 4.4, 40° C., 120 min

SMILES: CCCCCCCC(=O)O [caprylate, octanoic acid]
- predicted LRV (equivalent of 100%): 2.16
- predicted LRV on the 0 to 100 scale (maximized): 100%
